Measurements taken from patent US11274083B2, “Substituted thiophenyl uracils, salts thereof and the use thereof as herbicidal agents” (Syngenta Crop Protection AG, priority 2017, dated 2022).
“And” between values parts separate entries of the source, which are not always exact repeats. Equal entries are not always repeated.

Legend:
Assay type in all cases: in vivo
[1] = tested on: Glycine max; assay: Crop compatibility post-emergence, greenhouse pot test; conditions: application rate 20 g/ha
Summary of the method: (§1)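 Crop tolerance is rated as visual percent injury relative to untreated plants, about 3 weeks after a post-emergence foliar spray at the one-leaf stage. Sprays use WP or EC formulations diluted in water with 0.5% additive at 600 L/ha; plants are grown in sandy loam pots under greenhouse conditions.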

[2] = tested on: Triticum aestivum; assay: as above
Summary of the method: as §1

[3] = tested on: Oryza sativa; assay: as above
Summary of the method: as §1

[4] = tested on: Zea mays; assay: as above
Summary of the method: as §1

[5] = tested on: Hordeum murinum; assay: Herbicidal action pre-emergence, greenhouse pot test; conditions: application rate 320 g/ha
Summary of the method: (§2)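 Seeds sown in pots and covered with soil; WP or EC formulations sprayed onto the soil surface as aqueous suspension/emulsion with 0.5% additive at 600 L/ha water, at 320 g/ha or lower. Plants kept in greenhouse; efficacy scored visually after about 3 weeks as % versus untreated controls (100% = dead).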

[6] = tested on: Lolium rigidum; assay: as above; conditions: application rate 320 g/ha
Summary of the method: as §2

[7] = tested on: Veronica persica; assay: as above; conditions: application rate 320 g/ha
Summary of the method: as §2

[8] = tested on: Cyperus esculentus; assay: as above; conditions: application rate 320 g/ha
Summary of the method: as §2

[9] = tested on: Polygonum convolvulus; assay: as above; conditions: application rate 320 g/ha
Summary of the method: as §2

[10] = tested on: Viola tricolor; assay: as above; conditions: application rate 320 g/ha
Summary of the method: as §2

[11] = tested on: Echinochloa crus-galli; assay: as above; conditions: application rate 320 g/ha
Summary of the method: as §2

[12] = tested on: Alopecurus myosuroides; assay: as above; conditions: application rate 320 g/ha
Summary of the method: as §2

[13] = tested on: Avena fatua; assay: as above; conditions: application rate 320 g/ha
Summary of the method: as §2

[14] = tested on: Pharbitis purpurea; assay: as above; conditions: application rate 320 g/ha
Summary of the method: as §2

[15] = tested on: Stellaria media; assay: as above; conditions: application rate 320 g/ha
Summary of the method: as §2

[16] = tested on: Setaria viridis; assay: as above; conditions: application rate 320 g/ha
Summary of the method: as §2

[17] = tested on: Amaranthus retroflexus; assay: as above
Summary of the method: as §2

[18] = tested on: Abutilon theophrasti; assay: as above; conditions: application rate 320 g/ha
Summary of the method: as §2

[19] = tested on: Matricaria inodora; assay: as above; conditions: application rate 320 g/ha
[20] = tested on: Hordeum murinum; assay: Herbicidal action post-emergence, greenhouse pot test; conditions: application rate 80 g/ha
Summary of the method: (§3)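 Weeds in sandy loam pots sprayed at one-leaf stage (2–3 weeks after sowing) with WP or EC formulations in water plus 0.5% additive, 600 L/ha, at 80 g/ha or lower. After about 3 weeks in greenhouse, efficacy scored visually versus untreated controls (100% = dead, 0% = like control).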

[21] = tested on: Veronica persica; assay: as above; conditions: application rate 80 g/ha
Summary of the method: as §3

[22] = tested on: Polygonum convolvulus; assay: as above; conditions: application rate 80 g/ha
Summary of the method: as §3

[23] = tested on: Matricaria inodora; assay: as above; conditions: application rate 80 g/ha
Summary of the method: as §3

[24] = tested on: Viola tricolor; assay: as above; conditions: application rate 80 g/ha
Summary of the method: as §3

[25] = tested on: Echinochloa crus-galli; assay: as above; conditions: application rate 80 g/ha
Summary of the method: as §3

[26] = tested on: Avena fatua; assay: as above; conditions: application rate 80 g/ha
Summary of the method: as §3

[27] = tested on: Pharbitis purpurea; assay: as above; conditions: application rate 80 g/ha
Summary of the method: as §3

[28] = tested on: Stellaria media; assay: as above; conditions: application rate 80 g/ha
Summary of the method: as §3

[29] = tested on: Setaria viridis; assay: as above; conditions: application rate 80 g/ha
Summary of the method: as §3

[30] = tested on: Amaranthus retroflexus; assay: as above; conditions: application rate 80 g/ha
Summary of the method: as §3

[31] = tested on: Abutilon theophrasti; assay: as above; conditions: application rate 80 g/ha
Summary of the method: as §3

[32] = tested on: Lolium rigidum; assay: as above; conditions: application rate 80 g/ha
Summary of the method: as §3

[33] = tested on: Alopecurus myosuroides; assay: as above; conditions: application rate 80 g/ha, scored visually after about 3 weeks vs untreated controls
Summary of the method: as §3

[34] = tested on: Digitaria sanguinalis; assay: as above; conditions: application rate 80 g/ha
[35] = tested on: Digitaria sanguinalis; assay: Herbicidal action pre-emergence, greenhouse pot test; conditions: application rate 320 g/ha
From the text: Seeds of mono- and dicotyledonous weeds and crop plants were laid out in plastic or organic plant pots and covered with soil. The compounds of the invention formulated in the form of wettable powders (WP) or as emulsion concentrates (EC) were then applied to the surface of the covering soil as an aqueous suspension or emulsion with addition of 0.5% additive at a water application rate equivalent to 600 L/ha. After the treatment, the pots were placed in a greenhouse and kept under good growth conditions for the test plants. After about 3 weeks, the efficacy of the preparations was scored visually as a percentage by comparison with untreated controls. For example, 100% efficacy=plants have died. 0% efficacy=like control plants.

Structure (SMILES)	Hordeum murinum (Efficacy in %) [5] [%]	Lolium rigidum (Efficacy in %) [6] [%]	Veronica persica (Efficacy in %) [7] [%]	Polygonum convolvulus (Efficacy in %) [9] [%]	Viola tricolor (Efficacy in %) [10] [%]	Echinochloa crus-galli (Efficacy in %) [11] [%]	Alopecurus myosuroides (Efficacy in %) [12] [%]	Pharbitis purpurea (Efficacy in %) [14] [%]	Stellaria media (Efficacy in %) [15] [%]	Setaria viridis (Efficacy in %) [16] [%]	Abutilon theophrasti (Efficacy in %) [18] [%]	Matricaria inodora (Efficacy in %) [19] [%]	Veronica persica (Efficacy in %) [21] [%]	Polygonum convolvulus (Efficacy in %) [22] [%]	Matricaria inodora (Efficacy in %) [23] [%]	Viola tricolor (Efficacy in %) [24] [%]	Echinochloa crus-galli (Efficacy in %) [25] [%]	Avena fatua (Efficacy in %) [26] [%]	Pharbitis purpurea (Efficacy in %) [27] [%]	Stellaria media (Efficacy in %) [28] [%]	further results
CC(Sc1cc(-n2c(=O)cc(C(F)(F)F)n(C)c2=O)c(F)cc1Cl)C(=O)OC1CNC(=O)C1 (centres unmarked) [I.1-254]	90	100	100	100	100	100	100	100	100	100	100	100	90	100	100	100	100	80	100	90	Glycine max (Efficacy in %) [1]: 20%; Triticum aestivum (Efficacy in %) ([2]; application rate 20 g/ha): 10%; Oryza sativa (Efficacy in %) ([3]; application rate 80 g/ha): 0%; Zea mays (Efficacy in %) ([4]; application rate 80 g/ha): 0%; Cyperus esculentus (Efficacy in %) [8]: 80%; Avena fatua (Efficacy in %) [13]: 90%; Amaranthus retroflexus (Efficacy in %) ([17]; application rate 80 g/ha): 100%; Hordeum murinum (Efficacy in %) [20]: 100% and 80%; Setaria viridis (Efficacy in %) [29]: 100%; Amaranthus retroflexus (Efficacy in %) [30]: 100%; Abutilon theophrasti (Efficacy in %) [31]: 100%
COC(=O)C(C)(C)COC(=O)C(C)Sc1cc(-n2c(=O)cc(C(F)(F)F)n(C)c2=O)c(F)cc1Cl (centres unmarked) [I.1-32]	90	90	100	100	100	100	90	100	100	100	100	100	100	100	100	100	100	80	100	100	Triticum aestivum (Efficacy in %) ([2]; application rate 5 g/ha): 20%; Oryza sativa (Efficacy in %) ([3]; application rate 20 g/ha): 20%; Zea mays (Efficacy in %) ([4]; application rate 20 g/ha): 20%; Amaranthus retroflexus (Efficacy in %) ([17]; application rate 320 g/ha): 100%; Lolium rigidum (Efficacy in %) [32]: 100%; Alopecurus myosuroides (Efficacy in %) [33]: 80%; Setaria viridis (Efficacy in %) [29]: 100%; Amaranthus retroflexus (Efficacy in %) [30]: 100%; Abutilon theophrasti (Efficacy in %) [31]: 100%; Digitaria sanguinalis (Efficacy in %) [34]: 100%; Digitaria sanguinalis (Efficacy in %) [35]: 100%
